From paper doi:10.1101/2024.09.05.611349v1 (biorxiv, 2024)
Values after ≈ are worked out from the molar mass of the structure shown. Where two headings read alike, the source gives them in different places.

What was measured:
in vitro [1] = details: mouse, liver microsomes
[2] = tested on: Staphylococcus epidermidis MRSE 15-80; assay: microbe, parasite or virus in culture; design: species or system gram-positive clinical isolates; details: Staphylococcus epidermidis, MRSE
[3] = tested on: Enterococcus faecalis EFA 15-60; assay: microbe, parasite or virus in culture; design: species or system gram-positive clinical isolates; details: Enterococcus faecalis
[4] = tested on: Staphylococcus epidermidis MSSE 15-1; assay: microbe, parasite or virus in culture; design: species or system gram-positive clinical isolates; details: Staphylococcus epidermidis, MSSE151, read-out: MIC(μg/ml) / 1b
[5] = tested on: Staphylococcus aureus MRSA 17-4; assay: microbe, parasite or virus in culture; design: species or system gram-positive clinical isolates; details: Staphylococcus aureus, MRSA
[6] = tested on: Enterococcus faecium EFM 15-2; assay: microbe, parasite or virus in culture; design: species or system gram-positive clinical isolates; details: Enterococcus faecium
[7] = tested on: Enterococcus faecalis EFA 15-55; assay: microbe, parasite or virus in culture; design: species or system gram-positive clinical isolates; details: Enterococcus faecalis
[8] = tested on: Staphylococcus aureus MSSA 15-6; assay: microbe, parasite or virus in culture; design: species or system gram-positive clinical isolates; details: Staphylococcus aureus, MSSA
[9] = tested on: Staphylococcus aureus MRSA 15-2; assay: microbe, parasite or virus in culture; design: species or system gram-positive clinical isolates; details: Staphylococcus aureus, MRSA
[10] = tested on: Enterococcus faecium EFM 15-1; assay: microbe, parasite or virus in culture; design: species or system gram-positive clinical isolates; details: Enterococcus faecium
[11] = tested on: Staphylococcus aureus MSSA 15-7; assay: microbe, parasite or virus in culture; design: species or system gram-positive clinical isolates; details: Staphylococcus aureus, MSSA
[12] = tested on: Enterococcus faecalis EFA 15-58; assay: microbe, parasite or virus in culture; design: species or system gram-positive clinical isolates; details: Enterococcus faecalis
[13] = tested on: Enterococcus faecalis EFA 15-66; assay: microbe, parasite or virus in culture; design: species or system gram-positive clinical isolates; details: Enterococcus faecalis
[14] = tested on: Staphylococcus aureus MRSA 17-9; assay: microbe, parasite or virus in culture; design: species or system gram-positive clinical isolates; details: Staphylococcus aureus, MRSA
[15] = tested on: Staphylococcus aureus MRSA 17-2; assay: microbe, parasite or virus in culture; design: species or system gram-positive clinical isolates; details: Staphylococcus aureus, MRSA
[16] = tested on: Staphylococcus aureus MRSA 17-5; assay: microbe, parasite or virus in culture; design: species or system gram-positive clinical isolates; details: Staphylococcus aureus, MRSA
[17] = tested on: Staphylococcus epidermidis MRSE 15-82; assay: microbe, parasite or virus in culture; design: species or system gram-positive clinical isolates; details: Staphylococcus epidermidis, MRSE
[18] = tested on: Enterococcus faecium EFM 15-11; assay: microbe, parasite or virus in culture; design: species or system gram-positive clinical isolates; details: Enterococcus faecium
[19] = tested on: Staphylococcus aureus MRSA 17-8; assay: microbe, parasite or virus in culture; design: species or system gram-positive clinical isolates; details: Staphylococcus aureus, MRSA
[20] = tested on: Staphylococcus aureus MSSA 15-5; assay: microbe, parasite or virus in culture; design: species or system gram-positive clinical isolates; details: Staphylococcus aureus, MSSA
[21] = tested on: Staphylococcus epidermidis MRSE 15-2; assay: microbe, parasite or virus in culture; design: species or system gram-positive clinical isolates; details: Staphylococcus epidermidis, MRSE
[22] = tested on: Staphylococcus aureus MRSA 15-3; assay: microbe, parasite or virus in culture; design: species or system gram-positive clinical isolates; details: Staphylococcus aureus, MRSA
[23] = tested on: Staphylococcus aureus MRSA 16-1; assay: microbe, parasite or virus in culture; design: species or system gram-positive clinical isolates; details: Staphylococcus aureus, MRSA
[24] = tested on: Staphylococcus epidermidis MRSE 17-3; assay: microbe, parasite or virus in culture; design: species or system gram-positive clinical isolates; details: Staphylococcus epidermidis, MRSE
[25] = tested on: Staphylococcus aureus MSSA 15-1; assay: microbe, parasite or virus in culture; design: species or system gram-positive clinical isolates; details: Staphylococcus aureus, MSSA
S. aureus ATCC 29213 = assay: microbe, parasite or virus in culture; details: Staphylococcus aureus, ATCC29213, read-out: MIC (µg/mL)
in vitro [26] = details: Mouse plasma
[27] = read-out: MIC(μg/ml) / vancomycin

With `CCCCCOc1ccc(C(=O)NNC(=S)NC(C)=O)cc1` [1b, N-(2-(4-(n-pentoxy)benzoyl)hydrazine-1-carbonothioyl)acetamide] as the compound, how does the microsomal CLint (in vitro [1]) read?
The microsomal CLint was 49 µL/min/mg.

And the MIC ([2]; read-out: MIC(μg/ml) / 1b)?
The MIC was 1 µg/mL (≈ 3.09 µM).

What about the MIC ([3]; EFA1560, read-out: MIC(μg/ml) / 1b) of the same compound?
The MIC was 8 µg/mL (≈ 24.7 µM).

And the MIC [4]?
Its MIC is 1 µg/mL (≈ 3.09 µM).

And the MIC ([5]; read-out: MIC(μg/ml) / 1b)?
The MIC was 2 µg/mL (≈ 6.18 µM).

What about the MIC ([6]; EFM152, read-out: MIC(μg/ml) / 1b) of the same compound?
Its MIC is 4 µg/mL (≈ 12.4 µM).

And the MIC ([7]; EFA1555, read-out: MIC(μg/ml) / 1b)?
The MIC was 8 µg/mL (≈ 24.7 µM).

And the MIC ([8]; read-out: MIC(μg/ml) / 1b)?
The MIC was 2 µg/mL (≈ 6.18 µM).

What about the MIC ([9]; read-out: MIC(μg/ml) / 1b) of the same compound?
The MIC was 4 µg/mL (≈ 12.4 µM).

What about the MIC ([10]; EFM151, read-out: MIC(μg/ml) / 1b) of the same compound?
Its MIC is 8 µg/mL (≈ 24.7 µM).

What about the MIC ([11]; read-out: MIC(μg/ml) / 1b) of the same compound?
The MIC was 2 µg/mL (≈ 6.18 µM).

And the MIC ([12]; EFA1558, read-out: MIC(μg/ml) / 1b)?
The MIC was 4 µg/mL (≈ 12.4 µM).

And the MIC ([13]; EFA1566, read-out: MIC(μg/ml) / 1b)?
Its MIC is 4 µg/mL (≈ 12.4 µM).

What about the MIC ([14]; read-out: MIC(μg/ml) / 1b) of the same compound?
Its MIC is 2 µg/mL (≈ 6.18 µM).

What about the MIC ([15]; read-out: MIC(μg/ml) / 1b) of the same compound?
Its MIC is 4 µg/mL (≈ 12.4 µM).

And the MIC ([16]; read-out: MIC(μg/ml) / 1b)?
The MIC was 2 µg/mL (≈ 6.18 µM).

What about the MIC ([17]; read-out: MIC(μg/ml) / 1b) of the same compound?
The MIC was 1 µg/mL (≈ 3.09 µM).

And the MIC ([18]; EFM1511, read-out: MIC(μg/ml) / 1b)?
Its MIC is 4 µg/mL (≈ 12.4 µM).

What about the MIC ([19]; read-out: MIC(μg/ml) / 1b) of the same compound?
The MIC was 2 µg/mL (≈ 6.18 µM).

And the MIC ([20]; read-out: MIC(μg/ml) / 1b)?
Its MIC is 2 µg/mL (≈ 6.18 µM).

What about the MIC ([21]; read-out: MIC(μg/ml) / 1b) of the same compound?
Its MIC is 4 µg/mL (≈ 12.4 µM).

And the MIC ([22]; read-out: MIC(μg/ml) / 1b)?
The MIC was 4 µg/mL (≈ 12.4 µM).

What about the MIC ([23]; read-out: MIC(μg/ml) / 1b) of the same compound?
Its MIC is 2 µg/mL (≈ 6.18 µM).

What about the MIC ([24]; read-out: MIC(μg/ml) / 1b) of the same compound?
The MIC was 1 µg/mL (≈ 3.09 µM).

What about the MIC ([25]; read-out: MIC(μg/ml) / 1b) of the same compound?
Its MIC is 1 µg/mL (≈ 3.09 µM).

What about the MIC (S. aureus ATCC 29213) of the same compound?
The MIC was 0.78 µg/mL (≈ 2.41 µM).

And the “Mouse plasma T1/2” value (in vitro [26])?
Its value is >2 h.

With `CN[C@H](CC(C)C)C(=O)N[C@H]1C(=O)N[C@@H](CC(N)=O)C(=O)N[C@H]2C(=O)N[C@H]3C(=O)N[C@H](C(=O)N[C@H](C(=O)O)c4cc(O)cc(O)c4-c4cc3ccc4O)[C@H](O)c3ccc(c(Cl)c3)Oc3cc2cc(c3O[C@@H]2O[C@H](CO)[C@@H](O)[C@H](O)[C@H]2O[C@H]2C[C@](C)(N)[C@H](O)[C@H](C)O2)Oc2ccc(cc2Cl)[C@H]1O` [vancomycin] as the compound, how does the MIC [2, 27] read?
Its MIC is 2 µg/mL (≈ 1.38 µM).

And the MIC ([3]; EFA1560, read-out: MIC(μg/ml) / vancomycin)?
Its MIC is 8 µg/mL (≈ 5.52 µM).

What about the MIC [5, 27] of the same compound?
Its MIC is 1 µg/mL (≈ 0.69 µM).

What about the MIC ([6]; EFM152, read-out: MIC(μg/ml) / vancomycin) of the same compound?
The MIC was 2 µg/mL (≈ 1.38 µM).

And the MIC ([7]; EFA1555, read-out: MIC(μg/ml) / vancomycin)?
Its MIC is 0.5 µg/mL (≈ 0.345 µM).

What about the MIC [8, 27] of the same compound?
Its MIC is 0.5 µg/mL (≈ 0.345 µM).

And the MIC [9, 27]?
The MIC was 2 µg/mL (≈ 1.38 µM).

What about the MIC ([10]; EFM151, read-out: MIC(μg/ml) / vancomycin) of the same compound?
Its MIC is 1 µg/mL (≈ 0.69 µM).

What about the MIC [11, 27] of the same compound?
The MIC was 1 µg/mL (≈ 0.69 µM).

What about the MIC ([12]; EFA1558, read-out: MIC(μg/ml) / vancomycin) of the same compound?
The MIC was 0.5 µg/mL (≈ 0.345 µM).

What about the MIC ([13]; EFA1566, read-out: MIC(μg/ml) / vancomycin) of the same compound?
The MIC was 2 µg/mL (≈ 1.38 µM).

What about the MIC [14, 27] of the same compound?
Its MIC is 0.5 µg/mL (≈ 0.345 µM).

What about the MIC [15, 27] of the same compound?
Its MIC is 0.5 µg/mL (≈ 0.345 µM).

What about the MIC [16, 27] of the same compound?
Its MIC is 0.5 µg/mL (≈ 0.345 µM).

And the MIC [17, 27]?
Its MIC is 1 µg/mL (≈ 0.69 µM).

And the MIC ([18]; EFM1511, read-out: MIC(μg/ml) / vancomycin)?
The MIC was 0.5 µg/mL (≈ 0.345 µM).

And the MIC [19, 27]?
The MIC was 0.5 µg/mL (≈ 0.345 µM).

What about the MIC [20, 27] of the same compound?
Its MIC is 0.5 µg/mL (≈ 0.345 µM).

What about the MIC [21, 27] of the same compound?
Its MIC is 2 µg/mL (≈ 1.38 µM).

What about the MIC [22, 27] of the same compound?
The MIC was 1 µg/mL (≈ 0.69 µM).

And the MIC [23, 27]?
The MIC was 1 µg/mL (≈ 0.69 µM).

And the MIC [24, 27]?
Its MIC is 2 µg/mL (≈ 1.38 µM).

What about the MIC [25, 27] of the same compound?
Its MIC is 1 µg/mL (≈ 0.69 µM).
